Reference: the supplement of paper PMC10307832

Assays:
Experiment in all cases: relative viability (nuclei count vs DMSO), 5 days (fraction); higher = more cells survive
SK-MES-1 = test system: SK-MES-1
Method in brief: (§1)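 Lung cancer cell lines were seeded in 1536-well plates and dosed by pin tool the next day, with either a single drug or a fixed anchor-drug dose combined with five library-drug doses (not always all listed) spaced in √10 steps. Five days later, one step fixed the cells and stained their nuclei (final 0.05% Triton X-100, 1% formaldehyde, 1 ug/ml Hoechst), and nuclei were counted on 4× images. Relative viability is the nuclei count in treated wells divided by the count in vehicle wells, and each value is the median of duplicate plates.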

SK-LU-1 = test system: SK-LU-1
Method in brief: as §1

HCC-366 = test system: HCC-366
Method in brief: as §1

NCI-H2228 = test system: NCI-H2228
Method in brief: as §1

NCI-H2347 = test system: NCI-H2347
Method in brief: as §1

NCI-H2170 = test system: NCI-H2170
Method in brief: as §1

NCI-H650 = test system: NCI-H650
Method in brief: as §1

RERF-LC-KJ = test system: RERF-LC-KJ
Method in brief: as §1

NCI-H1915 = test system: NCI-H1915
Method in brief: as §1

LC-2-ad = test system: LC-2-ad
Method in brief: as §1

NCI-H1975 = test system: NCI-H1975
Method in brief: as §1

LCLC-103H = test system: LCLC-103H
Method in brief: as §1

A-427 = test system: A-427
Method in brief: as §1

NCI-H23 = test system: NCI-H23
Method in brief: as §1

NCI-H1355 = test system: NCI-H1355
Method in brief: as §1

SW 1573 = test system: SW 1573
Method in brief: as §1

NCI-H1755 = test system: NCI-H1755
Method in brief: as §1

UMC-11 = test system: UMC-11
Method in brief: as §1

HCC-827 = test system: HCC-827
Method in brief: as §1

NCI-H1734 = test system: NCI-H1734
Method in brief: as §1

NCI-H1993 = test system: NCI-H1993
Method in brief: as §1

NCI-H1792 = test system: NCI-H1792
Method in brief: as §1

Nc1cccc2c1CN(C1CCC(=O)NC1=O)C2=O (stereo unspecified) [Lenalidomide] + Cc1nc(NC(=O)N2CCC[C@H]2C(N)=O)sc1-c1ccnc(C(C)(C)C(F)(F)F)c1 [Alpelisib] (partner 2 µM)
relative viability (SK-MES-1; first compound 0.253 µM): 0.908
relative viability (SK-MES-1; first compound 0.8 µM): 1.02
relative viability (SK-MES-1; first compound 2.53 µM): 0.975
relative viability (SK-MES-1; first compound 8 µM): 0.617
relative viability (SK-LU-1; first compound 0.253 µM): 0.913
relative viability (SK-LU-1; first compound 0.8 µM): 0.999
relative viability (SK-LU-1; first compound 2.53 µM): 1.29
relative viability (SK-LU-1; first compound 8 µM): 1.07
relative viability (HCC-366; first compound 0.253 µM): 0.402
relative viability (HCC-366; first compound 0.8 µM): 0.336
relative viability (HCC-366; first compound 2.53 µM): 0.549
relative viability (HCC-366; first compound 8 µM): 0.324
relative viability (NCI-H2228; first compound 0.253 µM): 0.851
relative viability (NCI-H2228; first compound 0.8 µM): 0.736
relative viability (NCI-H2228; first compound 2.53 µM): 0.785
relative viability (NCI-H2228; first compound 8 µM): 0.817
relative viability (NCI-H2347; first compound 0.253 µM): 1.06
relative viability (NCI-H2347; first compound 0.8 µM): 0.957
relative viability (NCI-H2347; first compound 2.53 µM): 0.964
relative viability (NCI-H2347; first compound 8 µM): 0.875
relative viability (NCI-H2170; first compound 0.253 µM): 0.881
relative viability (NCI-H2170; first compound 0.8 µM): 0.781
relative viability (NCI-H2170; first compound 2.53 µM): 0.84
relative viability (NCI-H2170; first compound 8 µM): 0.755
relative viability (NCI-H650; first compound 0.253 µM): 1.22
relative viability (NCI-H650; first compound 2.53 µM): 1.41
relative viability (NCI-H650; first compound 8 µM): 1.15
relative viability (RERF-LC-KJ; first compound 0.253 µM): 0.624
relative viability (RERF-LC-KJ; first compound 0.8 µM): 0.904
relative viability (RERF-LC-KJ; first compound 2.53 µM): 0.752
relative viability (RERF-LC-KJ; first compound 8 µM): 0.637
relative viability (NCI-H1915; first compound 0.253 µM): 0.984
relative viability (NCI-H1915; first compound 0.8 µM): 1.07
relative viability (NCI-H1915; first compound 2.53 µM): 1.13
relative viability (NCI-H1915; first compound 8 µM): 1.07
relative viability (LC-2-ad; first compound 0.253 µM): 0.86
relative viability (LC-2-ad; first compound 0.8 µM): 0.98
relative viability (LC-2-ad; first compound 2.53 µM): 0.84
relative viability (LC-2-ad; first compound 8 µM): 0.881
relative viability (NCI-H1975; first compound 0.253 µM): 0.724
relative viability (NCI-H1975; first compound 0.8 µM): 0.667
relative viability (NCI-H1975; first compound 2.53 µM): 0.753
relative viability (NCI-H1975; first compound 8 µM): 0.592
relative viability (LCLC-103H; first compound 0.253 µM): 0.993
relative viability (LCLC-103H; first compound 0.8 µM): 1
relative viability (LCLC-103H; first compound 2.53 µM): 0.862
relative viability (LCLC-103H; first compound 8 µM): 0.674
relative viability (A-427; first compound 0.253 µM): 1.11
relative viability (A-427; first compound 2.53 µM): 1.09
relative viability (A-427; first compound 8 µM): 1.02
relative viability (NCI-H23; first compound 0.253 µM): 0.792
relative viability (NCI-H23; first compound 0.8 µM): 0.581
relative viability (NCI-H23; first compound 2.53 µM): 0.846
relative viability (NCI-H23; first compound 8 µM): 0.47
relative viability (NCI-H1355; first compound 0.253 µM): 0.806
relative viability (NCI-H1355; first compound 0.8 µM): 0.645
relative viability (NCI-H1355; first compound 2.53 µM): 0.848
relative viability (NCI-H1355; first compound 8 µM): 0.454
relative viability (SW 1573; first compound 0.253 µM): 0.775
relative viability (SW 1573; first compound 0.8 µM): 0.921
relative viability (SW 1573; first compound 2.53 µM): 1.01
relative viability (SW 1573; first compound 8 µM): 0.696
relative viability (NCI-H1755; first compound 0.253 µM): 0.865
relative viability (NCI-H1755; first compound 0.8 µM): 0.913
relative viability (NCI-H1755; first compound 2.53 µM): 0.985
relative viability (NCI-H1755; first compound 8 µM): 0.8
relative viability (UMC-11; first compound 0.253 µM): 1.05
relative viability (UMC-11; first compound 0.8 µM): 0.961
relative viability (UMC-11; first compound 2.53 µM): 1.03
relative viability (UMC-11; first compound 8 µM): 0.958
relative viability (HCC-827; first compound 0.253 µM): 0.978
relative viability (HCC-827; first compound 0.8 µM): 1.06
relative viability (HCC-827; first compound 2.53 µM): 0.96
relative viability (HCC-827; first compound 8 µM): 0.846
relative viability (NCI-H1734; first compound 0.253 µM): 0.669
relative viability (NCI-H1734; first compound 0.8 µM): 0.757
relative viability (NCI-H1734; first compound 2.53 µM): 0.746
relative viability (NCI-H1734; first compound 8 µM): 0.608
relative viability (NCI-H1993; first compound 0.253 µM): 0.744
relative viability (NCI-H1993; first compound 0.8 µM): 0.734
relative viability (NCI-H1993; first compound 2.53 µM): 0.683
relative viability (NCI-H1993; first compound 8 µM): 0.713
relative viability (NCI-H1792; first compound 0.253 µM): 0.755
relative viability (NCI-H1792; first compound 0.8 µM): 0.604
relative viability (NCI-H1792; first compound 2.53 µM): 0.82
relative viability (NCI-H1792; first compound 8 µM): 0.612
